Where two headings read alike, the source gives them in different places.

Experiment [1] deals with T1, human NPR1 (Homo sapiens, UniProt P16066).
T1 construct: host or cells: CHO-K1
T1 sequence (P16066 33-1061): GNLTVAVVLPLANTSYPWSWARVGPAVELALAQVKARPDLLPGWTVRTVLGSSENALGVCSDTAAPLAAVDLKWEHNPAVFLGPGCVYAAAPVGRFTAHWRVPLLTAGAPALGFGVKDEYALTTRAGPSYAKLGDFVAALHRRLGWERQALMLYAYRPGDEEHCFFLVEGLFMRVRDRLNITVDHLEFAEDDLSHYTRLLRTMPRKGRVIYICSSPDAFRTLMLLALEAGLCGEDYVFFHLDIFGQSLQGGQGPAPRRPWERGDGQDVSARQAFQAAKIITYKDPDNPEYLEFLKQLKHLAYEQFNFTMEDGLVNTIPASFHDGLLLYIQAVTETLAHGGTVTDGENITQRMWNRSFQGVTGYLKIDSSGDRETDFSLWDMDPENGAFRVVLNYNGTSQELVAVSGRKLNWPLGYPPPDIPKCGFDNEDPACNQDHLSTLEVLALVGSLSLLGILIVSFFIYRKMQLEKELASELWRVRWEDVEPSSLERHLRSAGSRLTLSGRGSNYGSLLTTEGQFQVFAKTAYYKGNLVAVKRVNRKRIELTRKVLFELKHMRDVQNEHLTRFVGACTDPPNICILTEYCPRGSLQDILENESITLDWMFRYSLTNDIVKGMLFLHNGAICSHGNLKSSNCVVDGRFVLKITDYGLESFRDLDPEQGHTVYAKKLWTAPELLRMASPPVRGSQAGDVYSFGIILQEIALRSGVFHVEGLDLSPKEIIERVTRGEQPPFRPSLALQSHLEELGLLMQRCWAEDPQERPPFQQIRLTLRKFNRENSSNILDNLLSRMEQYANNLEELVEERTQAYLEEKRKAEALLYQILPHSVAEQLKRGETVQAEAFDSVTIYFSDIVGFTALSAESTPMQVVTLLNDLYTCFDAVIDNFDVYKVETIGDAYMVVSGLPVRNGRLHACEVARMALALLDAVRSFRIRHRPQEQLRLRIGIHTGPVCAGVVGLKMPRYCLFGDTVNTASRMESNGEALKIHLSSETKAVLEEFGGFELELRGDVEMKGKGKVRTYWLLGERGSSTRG
The experiment is described as follows: Cellular cGMP production assay, human NPR1 expressing CHO-K1 cells (CisBio HTRF). The class given is cell-based. As to conditions: for AC50: cGMP production, 30 min at 37° C., 12-point dose-response from 30 μM; for Human NPR1 Amax (% of ANP): maximum cGMP production as percentage of the maximum cGMP produced with ANP. The method in brief: (§1)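 Read-out was HTRF (excitation 317 nm, emission 665 nm), with cGMP quantified as Delta F against a calibrator standard curve. Beforehand, cells were exposed for 30 min at 37 °C to compound (30 μM top, twelve 3-fold steps) in IBMX-containing PBS/BSA buffer, then lysed.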
In general terms: In TR-FRET formats the signal depends on donor and acceptor labels being close together.

The target in experiment [2] is monkey NPR1 (Macaca fascicularis, UniProt A0A7N9DBT9). The experiment in a line: Cellular cGMP production assay, monkey NPR1 expressing CHO-K1 cells (CisBio HTRF). As to conditions: for Monkey NPR1 Amax (% of ANP): maximum cGMP production as percentage of the maximum cGMP produced with ANP. The experiment is classed as cell-based. The method in brief:
as §1

The mark [3] stands for this setting: cGMP production, monkey NPR1 CHO-K1 cells, 30 min at 37° C., 12-point dose-response from 30 μM, read-out: Monkey NPR1 AC50.

Chain of monkey NPR1 (A0A7N9DBT9 entry or part of it): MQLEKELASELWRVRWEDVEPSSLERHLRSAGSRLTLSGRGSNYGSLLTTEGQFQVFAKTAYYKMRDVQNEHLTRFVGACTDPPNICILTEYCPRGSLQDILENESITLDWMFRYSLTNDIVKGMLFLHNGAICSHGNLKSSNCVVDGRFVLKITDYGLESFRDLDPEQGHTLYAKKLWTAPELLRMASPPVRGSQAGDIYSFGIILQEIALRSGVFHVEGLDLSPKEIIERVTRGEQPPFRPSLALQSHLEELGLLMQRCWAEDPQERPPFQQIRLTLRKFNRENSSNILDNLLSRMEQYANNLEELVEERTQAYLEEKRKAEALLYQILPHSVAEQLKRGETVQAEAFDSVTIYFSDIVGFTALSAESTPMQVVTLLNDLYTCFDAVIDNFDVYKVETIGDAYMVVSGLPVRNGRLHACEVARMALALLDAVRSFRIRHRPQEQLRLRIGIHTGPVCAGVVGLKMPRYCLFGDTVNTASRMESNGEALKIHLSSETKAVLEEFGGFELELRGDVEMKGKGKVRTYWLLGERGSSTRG

Turning to `CC[C@H]([C@H]1CC[C@H](C(=O)O)CC1)N(C)c1nc2c(c(N[C@@H](CN3C4CCCC3CC4)c3cnn(C)c3)n1)C[C@H](c1ccc(F)cc1)CC2` [Compound 31, (1R,4r)-4-((1R)-1-(((6R)-4-(((1R)-2-(8-azabicyclo[3.2.1]octan-8-yl)-1-(1-methyl-1H-pyrazol-4-yl)ethyl)amino)-6-(4-fluorophenyl)-5,6,7,8-tetrahydroquinazolin-2-yl)(methyl)amino)propyl)cyclohexane-1-carboxylic acid], in experiment [1], the AC50 is 144 nM and the “Human NPR1 Amax (% of ANP)” value is listed as 92.978 % of ANP. The molecule further showed a concentration at half-maximal activity (AC50) in experiment [2] of 89 nM. Moreover, in experiment [2] (monkey NPR1 CHO-K1 cells), the “Monkey NPR1 Amax (% of ANP)” value is given as 100.914 % of ANP.
In the case of `CC[C@H]([C@H]1CC[C@H](C(=O)O)CC1)N(C)c1nc2c(c(N[C@@H](CN3CCC[C@H](C)C3)c3cnn(C)c3)n1)C[C@H](c1cccc(F)c1)CC2` [Compound 23, (1R,4r)-4-((R)-1-(((R)-6-(3-fluorophenyl)-4-(((R)-1-(1-methyl-1H-pyrazol-4-yl)-2-((S)-3-methylpiperidin-1-yl)ethyl)amino)-5,6,7,8-tetrahydroquinazolin-2-yl)(methyl)amino)propyl)cyclohexane-1-carboxylic acid], the half-maximal activity concentration (AC50) in experiment [1] stood at 115 nM; in experiment [2], 72 nM. Moreover, the “Human NPR1 Amax (% of ANP)” value in experiment [1] was 120.018 % of ANP. Further, in experiment [2] (monkey NPR1 CHO-K1 cells), the “Monkey NPR1 Amax (% of ANP)” value is 132.182 % of ANP.
For the molecule `CC[C@@H](Nc1nc2c(c(N[C@@H](CN3CCCCC3)c3scnc3C)n1)C[C@H](c1ccccc1)CC2)[C@H]1CC[C@H](C(=O)O)CC1` [Compound 114, (1R,4r)-4-((R)-1-(((R)-4-(((S)-1-(4-methylthiazol-5-yl)-2-(piperidin-1-yl)ethyl)amino)-6-phenyl-5,6,7,8-tetrahydroquinazolin-2-yl)amino)propyl)cyclohexane-1-carboxylic acid], in experiment [1], half-maximal activity (AC50) was put at 449 nM and the “Human NPR1 Amax (% of ANP)” value is reported as 108.428 % of ANP. Further, the AC50 in experiment [2] (setting [3]) was 296 nM. Besides, the “Monkey NPR1 Amax (% of ANP)” value in experiment [2] (monkey NPR1 CHO-K1 cells) is reported as 113.348 % of ANP.
For `CC[C@@H](Nc1nc2c(c(N[C@@H](CN3C4CCCC3CC4)c3sc(C)nc3C)n1)C[C@H](c1cccc(F)c1)CC2)[C@H]1CC[C@H](C(=O)O)CC1` [Compound 24, (1R,4r)-4-((1R)-1-(((6R)-4-(((1S)-2-(8-azabicyclo[3.2.1]octan-8-yl)-1-(2,4-dimethylthiazol-5-yl)ethyl)amino)-6-(3-fluorophenyl)-5,6,7,8-tetrahydroquinazolin-2-yl)amino)propyl)cyclohexane-1-carboxylic acid], in experiment [1], the AC50 was 125 nM and the “Human NPR1 Amax (% of ANP)” value was 112.884 % of ANP. In addition, in experiment [2], the AC50 turned out to be 102 nM. For the same molecule, the “Monkey NPR1 Amax (% of ANP)” value in experiment [2] (monkey NPR1 CHO-K1 cells) is given as 128.837 % of ANP.
With `CC[C@@H](Nc1nc2c(c(N[C@@H](CN3C4CCCC3CC4)c3ccccc3)n1)C[C@H](c1ccccc1)CC2)[C@H]1CC[C@H](C(=O)O)CC1` [Compound 49, (1R,4r)-4-((1R)-1-(((6R)-4-(((1R)-2-(8-azabicyclo[3.2.1]octan-8-yl)-1-phenylethyl)amino)-6-phenyl-5,6,7,8-tetrahydroquinazolin-2-yl)amino)propyl)cyclohexane-1-carboxylic acid], in experiment [1], the AC50 amounted to 185 nM and the “Human NPR1 Amax (% of ANP)” value is on record as 104.186 % of ANP. The concentration at half-maximal activity (AC50) in experiment [2] is 138 nM. Further, the “Monkey NPR1 Amax (% of ANP)” value in experiment [2] (monkey NPR1 CHO-K1 cells) is on record as 106.033 % of ANP.
With `CC[C@@H](Nc1nc2c(c(N[C@@H](CN3CCC[C@H](C)C3)c3cnn(C)c3)n1)C[C@H](c1ccccc1)CC2)[C@H]1CC[C@H](C(=O)O)CC1` [Compound 32, (1R,4r)-4-((R)-1-(((R)-4-(((R)-1-(1-methyl-1H-pyrazol-4-yl)-2-((S)-3-methylpiperidin-1-yl)ethyl)amino)-6-phenyl-5,6,7,8-tetrahydroquinazolin-2-yl)amino)propyl)cyclohexane-1-carboxylic acid], the AC50 in experiment [1] turned out to be 144 nM; in experiment [2] (setting [3]) it was 84 nM. Besides, the “Human NPR1 Amax (% of ANP)” value in experiment [1] is given as 99.842 % of ANP. In addition, in experiment [2] (monkey NPR1 CHO-K1 cells), the “Monkey NPR1 Amax (% of ANP)” value is listed as 92.720 % of ANP.

What is called AC50 is the concentration giving half of the maximal activity seen.

(Values after US12129246B1, “Hydroquinazoline derivatives for the treatment of a disease or disorder” (Novartis AG, priority 2023, dated 2024).)
